Measured values taken from the supplement of paper PMC5908809.

Columns and labels:
[1] = test system: normal NK cells expanded with K562-aAPC; assay: drug sensitivity score (DSS) (DSS units); higher = more sensitive; extreme values may be limits of the assay; conditions: 72 h; IL-2 2.5 ng/mL
Procedure: (§1)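 Drug sensitivity and resistance testing on K562-aAPC-expanded normal NK cells: 5 concentrations (10-fold steps over a 10,000-fold range), 72 h at 37 °C, viability by CellTiter-Glo normalised to DMSO and benzethonium chloride controls; DSS from the fitted curve.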

IMC-1 (IL-2 20 ng/mL) [2] = assay: percent inhibition of viability; higher = more inhibition; conditions: 72 h
KAI3 (IL-2 2.5 ng/mL) [3] = assay: as above; conditions: 72 h
[4] = test system: normal primary NK cells, pool 1 (3 donors) (IL-2 2.5 ng/mL); assay: as above; conditions: 72 h
KHYG-1 (IL-2 2.5 ng/mL) [5] = assay: as above; conditions: 72 h
SNK-6 (IL-2 2.5 ng/mL) [6] = assay: as above; conditions: 72 h
NK-YS (IL-2 2.5 ng/mL) [7] = assay: as above; conditions: 72 h
[8] = test system: normal primary NK cells, pool 3 (3 donors) (IL-2 2.5 ng/mL); assay: as above; conditions: 72 h
[9] = test system: normal primary NK cells, pool 1 (3 donors), resting (IL-2 0 ng/mL); assay: as above; conditions: 72 h
[10] = test system: normal primary NK cells, pool 2 (3 donors) (IL-2 2.5 ng/mL); assay: as above; conditions: 72 h
NK-92 (IL-2 2.5 ng/mL) [11] = assay: as above; conditions: 72 h
DERL-7 (IL-2 2.5 ng/mL) [12] = assay: as above; conditions: 72 h
YT (IL-2 2.5 ng/mL) [13] = assay: as above; conditions: 72 h
NKL (IL-2 2.5 ng/mL) [14] = assay: as above; conditions: 72 h
IMC-1 (IL-2 20 ng/mL) [15] = assay: drug sensitivity score (DSS) (DSS units); higher = more sensitive; extreme values may be limits of the assay; conditions: 72 h
KAI3 (IL-2 2.5 ng/mL) [16] = assay: as above; conditions: 72 h
[17] = test system: normal primary NK cells, pool 1 (3 donors) (IL-2 2.5 ng/mL); assay: as above; conditions: 72 h
KHYG-1 (IL-2 2.5 ng/mL) [18] = assay: as above; conditions: 72 h
SNK-6 (IL-2 2.5 ng/mL) [19] = assay: as above; conditions: 72 h
NK-YS (IL-2 2.5 ng/mL) [20] = assay: as above; conditions: 72 h
[21] = test system: normal primary NK cells, pool 3 (3 donors) (IL-2 2.5 ng/mL); assay: as above; conditions: 72 h
[22] = test system: normal primary NK cells, pool 1 (3 donors), resting (IL-2 0 ng/mL); assay: as above; conditions: 72 h
[23] = test system: normal primary NK cells, pool 2 (3 donors) (IL-2 2.5 ng/mL); assay: as above; conditions: 72 h
NK-92 (IL-2 2.5 ng/mL) [24] = assay: as above; conditions: 72 h
DERL-7 (IL-2 2.5 ng/mL) [25] = assay: as above; conditions: 72 h
YT (IL-2 2.5 ng/mL) [26] = assay: as above; conditions: 72 h
NKL (IL-2 2.5 ng/mL) [27] = assay: as above; conditions: 72 h
[28] = test system: normal NK cells expanded with K562-aAPC; assay: percent inhibition of viability; higher = more inhibition; conditions: 72 h, IL-2 2.5 ng/mL
Procedure: as §1

Nc1ncnc2c1nc(N)n2[C@@H]1O[C@H](CO)[C@@H](O)[C@H]1O [8-amino-adenosine] (max concentration tested 50000 nM)
Conditions	drug sensitivity score
DERL-7 (IL-2 2.5 ng/mL) [25]	24.3
IMC-1 (IL-2 20 ng/mL) [15]	20.1
KAI3 (IL-2 2.5 ng/mL) [16]	26.6
KHYG-1 (IL-2 2.5 ng/mL) [18]	21.4
NK-92 (IL-2 2.5 ng/mL) [24]	25
NK-YS (IL-2 2.5 ng/mL) [20]	22
NKL (IL-2 2.5 ng/mL) [27]	25.6
SNK-6 (IL-2 2.5 ng/mL) [19]	32.5
YT (IL-2 2.5 ng/mL) [26]	21.3
[1]	22.2
[17]	8.3
[21]	8.22
[22]	4.92
[23]	9.73

percent inhibition of viability [%]
Conditions	5 nM	50 nM	500 nM	5000 nM	50000 nM
DERL-7 (IL-2 2.5 ng/mL) [12]	-0.37	-2.93	51.5	101	101
IMC-1 (IL-2 20 ng/mL) [2]	-2.9	-0.37	12.2	101	101
KAI3 (IL-2 2.5 ng/mL) [3]	-12.9	-1.89	75.4	104	106
KHYG-1 (IL-2 2.5 ng/mL) [5]	-1.34	-2.24	21.2	105	109
NK-92 (IL-2 2.5 ng/mL) [11]	-19.1	-2.94	59.2	106	109
NK-YS (IL-2 2.5 ng/mL) [7]	-5.77	-1.64	26	102	108
NKL (IL-2 2.5 ng/mL) [14]	-18.8	6.72	63	107	109
SNK-6 (IL-2 2.5 ng/mL) [6]	24.4	39.9	75.8	99	101
YT (IL-2 2.5 ng/mL) [13]	-0.2	1.01	20.2	102	110
[4]	2.12	-9.21	1.92	26.5	81.2
[8]	-13.3	-8.61	10.2	31	84.2
[9]	-6.09	-20.9	-6.28	5.09	75.2
[10]	-14.7	-1.95	0.14	36.1	88.7
[28]	-1.82	3.86	28.5	101	101

Cc1c2oc3c(C)ccc(C(=O)N[C@@H]4C(=O)N[C@H](C(C)C)C(=O)N5CCC[C@H]5C(=O)N(C)CC(=O)N(C)[C@@H](C(C)C)C(=O)O[C@@H]4C)c3nc-2c(C(=O)N[C@@H]2C(=O)N[C@H](C(C)C)C(=O)N3CCC[C@H]3C(=O)N(C)CC(=O)N(C)[C@@H](C(C)C)C(=O)O[C@@H]2C)c(N)c1=O [Dactinomycin] (max concentration tested 1000 nM)
Conditions	drug sensitivity score
DERL-7 (IL-2 2.5 ng/mL) [25]	33.6
IMC-1 (IL-2 20 ng/mL) [15]	23.2
KAI3 (IL-2 2.5 ng/mL) [16]	26.6
KHYG-1 (IL-2 2.5 ng/mL) [18]	30.4
NK-92 (IL-2 2.5 ng/mL) [24]	18.8
NK-YS (IL-2 2.5 ng/mL) [20]	39.5
NKL (IL-2 2.5 ng/mL) [27]	38.8
SNK-6 (IL-2 2.5 ng/mL) [19]	38.1
YT (IL-2 2.5 ng/mL) [26]	36.5
[1]	22.2
[17]	22
[21]	22.5
[22]	25.8
[23]	25.3

percent inhibition of viability [%]
Conditions	0.1 nM	1 nM	10 nM	100 nM	1000 nM
DERL-7 (IL-2 2.5 ng/mL) [12]	-0.87	44.9	83	101	101
IMC-1 (IL-2 20 ng/mL) [2]	-6.77	-14.7	38.1	100	101
KAI3 (IL-2 2.5 ng/mL) [3]	-6.19	34.4	52.9	103	107
KHYG-1 (IL-2 2.5 ng/mL) [5]	-3.25	36.4	71	106	108
NK-92 (IL-2 2.5 ng/mL) [11]	-12.8	-6.87	22	87.4	105
NK-YS (IL-2 2.5 ng/mL) [7]	5.62	72.3	94.4	106	107
NKL (IL-2 2.5 ng/mL) [14]	-4.78	72.4	84.8	108	110
SNK-6 (IL-2 2.5 ng/mL) [6]	33.9	71.2	81.7	99.6	78.6
YT (IL-2 2.5 ng/mL) [13]	0.56	51	97.4	107	108
[4]	5.89	7.37	35.9	98.4	98.6
[8]	-10.8	5.15	39.6	98.5	99.8
[9]	-15.9	13.6	67.8	91.7	90.8
[10]	-13.2	8.51	64.2	94.5	95.7
[28]	1.4	5.24	28.6	101	101

Cc1ccc2nc(CN(CCN(Cc3nc4ccc(C)cc4[nH]3)Cc3nc4ccc(C)cc4[nH]3)Cc3nc4ccc(C)cc4[nH]3)[nH]c2c1 (max concentration tested 50000 nM)
Conditions	drug sensitivity score
DERL-7 (IL-2 2.5 ng/mL) [25]	9.01
IMC-1 (IL-2 20 ng/mL) [15]	4.41
KAI3 (IL-2 2.5 ng/mL) [16]	13.3
KHYG-1 (IL-2 2.5 ng/mL) [18]	10.5
NK-92 (IL-2 2.5 ng/mL) [24]	12.5
NK-YS (IL-2 2.5 ng/mL) [20]	8.57
NKL (IL-2 2.5 ng/mL) [27]	15.5
SNK-6 (IL-2 2.5 ng/mL) [19]	4.89
YT (IL-2 2.5 ng/mL) [26]	9.85
[1]	8.41
[17]	9.43
[21]	2.31
[22]	9.11
[23]	3.42

percent inhibition of viability [%]
Conditions	5 nM	50 nM	500 nM	5000 nM	50000 nM
DERL-7 (IL-2 2.5 ng/mL) [12]	2.65	-5.22	4.05	22	101
IMC-1 (IL-2 20 ng/mL) [2]	-6.83	-3.4	-4.29	10.4	51.3
KAI3 (IL-2 2.5 ng/mL) [3]	-0.45	-7.54	8.33	62.9	110
KHYG-1 (IL-2 2.5 ng/mL) [5]	-9.01	-6.49	-6.15	36.3	108
NK-92 (IL-2 2.5 ng/mL) [11]	-27.1	-13.1	15.2	54.5	110
NK-YS (IL-2 2.5 ng/mL) [7]	-2.1	-1.56	2.07	18.1	107
NKL (IL-2 2.5 ng/mL) [14]	2.31	-9.86	19.8	69.1	107
SNK-6 (IL-2 2.5 ng/mL) [6]	-21	-28.4	-6.29	-12.1	101
YT (IL-2 2.5 ng/mL) [13]	-8.1	-15.1	-6.51	29.4	108
[4]	-9.49	4.67	4.72	25.6	101
[8]	-5.58	-1.41	10.2	5.2	32.2
[9]	-25.9	1.32	12.4	24.8	99.8
[10]	-1.51	3.91	12.8	12.1	37.9
[28]	-4.88	-8.25	-3.73	17.5	100

COc1cc2c(NC3CCN(C(C)C)CC3)nc(C3CCCCC3)nc2cc1OCCCN1CCCC1 [UNC0638] (max concentration tested 10000 nM)
Conditions	drug sensitivity score
DERL-7 (IL-2 2.5 ng/mL) [25]	7.69
IMC-1 (IL-2 20 ng/mL) [15]	6.26
KAI3 (IL-2 2.5 ng/mL) [16]	14.4
KHYG-1 (IL-2 2.5 ng/mL) [18]	6.72
NK-92 (IL-2 2.5 ng/mL) [24]	8.98
NK-YS (IL-2 2.5 ng/mL) [20]	6.67
NKL (IL-2 2.5 ng/mL) [27]	7.29
SNK-6 (IL-2 2.5 ng/mL) [19]	9.2
YT (IL-2 2.5 ng/mL) [26]	5.79
[1]	6.1
[17]	5.15
[21]	5.3
[22]	7.28
[23]	5.75

percent inhibition of viability [%]
Conditions	1 nM	10 nM	100 nM	1000 nM	10000 nM
DERL-7 (IL-2 2.5 ng/mL) [12]	2.53	3.85	-3.65	12.8	101
IMC-1 (IL-2 20 ng/mL) [2]	-2.5	-1.52	2.54	4.7	100
KAI3 (IL-2 2.5 ng/mL) [3]	-1.49	2.96	15.3	64.9	107
KHYG-1 (IL-2 2.5 ng/mL) [5]	3.45	-2.32	4.32	6.75	102
NK-92 (IL-2 2.5 ng/mL) [11]	5.67	5.27	21.5	21.4	104
NK-YS (IL-2 2.5 ng/mL) [7]	-0.95	-0.93	1.21	6.18	103
NKL (IL-2 2.5 ng/mL) [14]	-8.37	-2.53	-3.47	10	103
SNK-6 (IL-2 2.5 ng/mL) [6]	-6.73	-2.24	11.7	23.5	101
YT (IL-2 2.5 ng/mL) [13]	-0.28	-1.09	4.71	0.39	102
[4]	4.83	-1.29	1.24	-5.62	100
[8]	-4.55	-0.2	2.47	-3.99	100
[9]	7.27	-7.21	-5.23	10.6	100
[10]	-8.36	-2.48	-3.63	1.06	100
[28]	-0.44	0.89	0.9	3.67	100
